Experimental findings from patent US11478440B2, “Combination of Elafibranor or derivatives thereof with an anti-NASH, anti-fibrotic or anti-cholestatic agent” (GENFIT, priority 2017, dated 2022) are described below.

The subject of one assay is HepG2. The assay can be described thus: Intracellular lipid droplets (AdipoRed) in fat-loaded HepG2. The class given is cell-based, human. The conditions noted are these: elafibranor 10 μM alone; FFA-treated. On the procedure: The human hepatocyte carcinoma were cultured in DMEM 4.5 g/L glucose (Gibco cat #31053 that was supplemented with 10% fetal bovine serum (FBS, Gibco cat #10270), 1% penicillin/streptomycin (Gibco cat #15140), 1% MEM NEAA (Gibco cat #11140), 1% L-Glutamine (Gibco cat #25030), and 1% Sodium Pyruvate (Gibco cat #11360).
For these experiments, a checkerboard matrix was generated. ELA and component stocks were serially diluted in DMSO in 5-points series in a row (ELA) and a 11-points series in a column (component) of a 384-well plate. Subsequently, the 5×11 combination matrix was generated by 1:1 mixing of all single agent concentrations.
Oleic (#O1383) and palmitic (P0500) acids were purchased at Sigma. FFA stock solutions (100 mM) were prepared in 0.1M NaOH at 80° C. Working solutions of 4.5 mM palmitate/10% bovine serum albumin (BSA) and 9 mM oleate/10% BSA were prepared by complexing an appropriate volume of stock solution to 10% BSA (FFA-free low endotoxin; Sigma-Aldrich, Bornem, Belgium) in a 55° C. water bath (15 min). […]
To measure intracellular lipid droplets content, the cells were brought to room temperature and washed with 40 μL PBS. […] The relative fluorescence was measured (k excitation at 485 nm, k emission at 580 nm) using a fluorescence spectrometer (Spark Tecan cat #30086376 SN #1801002745). […]

A further assay concerns 3D Huh7 spheroids. The assay can be described thus: Lipid accumulation (AdipoRed) in 3D Huh7 spheroid culture under metabolic NASH stimulus. It counts as cell-based. As to conditions: Elafibranor 3 μM alone, Day 7. On the procedure:
Cryopreserved Huh7 were purchased from ECACC. Cells were grown in ULA plates (Costar), William's medium (Sigma) containing 10% FBS (Gibco) at 37° C. in a humidified 5% CO2 cell culture incubator. Cells aggregated and formed spheroids within 5 days.
For these experiments, a checkerboard matrix was generated. ELA and component (ii) stocks were serially diluted in DMSO in 2-points series in a row (ELA) and a 3-points series in a column (component (ii)) of a 96-well plate. Subsequently, the 2×3 combination matrix was generated by 1:1 mixing of all single agent concentrations.
3D Huh7 spheroids were cultured under standard conditions, as described above. They were then deprived for 24 hours in serum-free medium. For the treatments with ELA, component (ii) and the respective ELA/component (ii) combinations, the serum-deprived spheroids were treated with both a metabolic NASH stimulus and the compounds (Day 0) followed by the renewal of the metabolic NASH stimulus and the compounds at Day 4 for an additional 3 days period. The spheroids were stained for lipid accumulation at Day 7.
Intracellular lipid accumulation was quantified using the ADIPORED Assay Reagent (Lonza). Spheroids were subjected to fluorescence assay quantification at λexc: 485 nm and λem: 572 nm, using fluorescence plate reader (TECAN).

The subject of assay [1] is LPS-activated macrophages (THP-1). The assay can be described thus: TNFα secretion (HTRF) in LPS-activated THP-1 macrophages. It counts as cell-based, human. The conditions noted are these: Elafibranor 1 μM alone; LPS 100 ng/ml 6 h. On the procedure: THP-1 monocytes (ECACC #88081201) were seeded at a density of 25550 cells per well in 384-well plate in RPMI1640 (Gibco, 21875) supplemented with 10% SVF and differentiated into macrophages using PMA (Phorbol 12-myristate 13-acetate, Sigma, P8139) at the final concentration of 100 ng/ml for 24 hours.
For these experiments, a checkerboard matrix was generated. ELA and component stocks were serially diluted in DMSO in 6-points series in a column (ELA) and a 10-points series in a raw (component) of a 96-well plate for other compounds. Subsequently, the 6×10 combination matrix was generated by 1:1 mixing of all single agent concentrations.
After 24 hrs with PMA, medium was removed, and replaced by serum free RPMI. […]
Human TNFα is quantified in the supernatants using the Homogeneous Time Resolved Fluorescence (HTRF) technology (Cisbio 62[…]), based on FRET technology. FRET (Fluorescence Resonance Energy Transfer) is based on the transfer of energy between two fluorophores, a donor and an acceptor, when in close proximity. Molecular interactions between biomolecules can be assessed by coupling each partner with a fluorescent label and by detecting the level of energy transfer (665 nm). […]

As for “1-[4-methylthiophenyl]-3-[3,5-dimethyl-4-carboxydimethylmethyloxyphenyl]prop-2-en-1-one [Elafibranor]”, the “reduction of fat accumulation” value with HepG2 worked out at 20%. Also, the “reduction of fat content” value in the assay on 3D Huh7 spheroids was found to be 12%. In assay [1], the “inhibition of TNFα secretion” value was 21%.
